From patent publication US10501454B2, “Monocyclic β-lactam-siderophore conjugate, and preparation method and use thereof” (Shanghai Institute of Materia Medica, Chinese Academy of …, priority 2016, dated 2019)
Converted amounts (≈) assume the structure as drawn. Where a name gives a salt, the structure may show the parent alone.

Key:
[1] = tested on: Escherichia coli ATCC 35218; test: MIC, broth microdilution, normal MH medium; assay type: cell-based; settings: Escherichia coli, ATCC35218, quality control strain, read-out: Antibacterial activity MIC, Escherichia coli ATCC 35218
Experimental: (§1) Strain for quality control: Escherichia coli ATCC35218, purchased from National Center of Clinical Laboratory.
(§2) Medium: MH liquid medium (OXOID).
(§3) Culture condition: cells were incubated at 35-37° C. for 16-18 h.
(§4) The broth microdilution method recommended by Clinical and Laboratory Standards Institute (CLSI), Performance Standards for Antimicrobial Susceptibility Testing; Twenty-Third Informational Supplement, M02-All, M07-A9 and M11-A8, 2013 was used to determine the MIC value of each test sample against each test strain in the normal MH medium and iron-deficient MH medium.
(§5) After diluting each sample to different concentrations with normal MH medium, 100 μl of each test sample solution at different concentrations was separately aspirated onto a 96-well sterile polystyrene plate. Drug solutions were added to the 1st to 10th well with the final concentrations of 16, 8, 4, 2, 1, 0.5, 0.25, 0.125, 0.06, and 0.03 mg/L in each well, respectively. The 11th well, as a blank control, was not added with drugs and bacteria. The 12th well, as a bacterial growth control, was added with bacteria but no drug.
(§6) The test bacterial liquid was adjusted to a bacterial suspension of 0.5 Mcfarland standard with physiological saline, and diluted with MH broth at 1:100, and then added to the drug solution so that a final concentration of the bacterial liquid was approximately 10^4 CFU/ml; 100 μl of the bacterial liquid was further added to each of the above wells (the total volume in each well is 200 μl), which was sealed and placed in a 35-37° C. incubator for 18-20 h for testing the result. The OD600 value was measured by a microplate reader, Minimal Inhibitory Concentration (MIC) of a drug is the lowest concentration of the drug which prevents growth of bacteria in the wells. 1.2.2 MIC in iron-deficient MH medium

[2] = tested on: Acinetobacter baumannii (4 strains); test: MIC, broth microdilution, normal MH medium; assay type: cell-based; settings: Acinetobacter baumannii, read-out: Antibacterial activity MIC, Acinetobacter baumarmii (4 strains)
Experimental: (§7) Supplier of the strains: all of the above strains were provided by Sichuan Primed Shines Bio-tech Co., Ltd. A single colony was isolated by streaking on agar plates for each strain prior to the experiment, and the cells freshly cultured at 37° C. overnight were appropriately diluted for the experiment.
as §2, §3, §4, §5, §6

[3] = tested on: Escherichia coli (4 strains); test: MIC, broth microdilution, normal MH medium; assay type: cell-based; settings: for MIC: Escherichia coli, clinical isolates (ESBLs), read-out: Antibacterial activity MIC, Escherichia coli (4 strains); for times more effective than BAL30072 in inhibitory activity against Escherichia coli: from MIC of Table 2
Experimental: as §7, §2, §3, §4, §5, §6

[4] = tested on: Pseudomonas aeruginosa (4 strains); test: MIC, broth microdilution, normal MH medium; assay type: cell-based; settings: Pseudomonas aeruginosa, multidrug-resistant clinical isolates (integrator I, IMP4), read-out: Antibacterial activity MIC, Pseudomonas aeruginosa (4 strains)
Experimental: as §7, §2, §3, §4, §5, §6

[5] = tested on: Klebsiella pneumoniae (4 strains); test: MIC, broth microdilution, normal MH medium; assay type: cell-based; settings: for MIC: Klebsiella pneumoniae, multi-drug resistant clinical isolates (KPC2), read-out: Antibacterial activity MIC, Klebsiella pneumoniae (4 strains); for times more effective than BAL30072 in inhibitory activity against Klebsiella pneumoniae: from MIC of Table 2
Experimental: as §7, §2, §3, §4, §5
The OD600 value was measured by a microplate reader, Minimal Inhibitory Concentration (MIC) of a drug is the lowest concentration of the drug which prevents growth of bacteria in the wells. 1.2.2 MIC in iron-deficient MH medium

[6] = tested on: Escherichia coli ATCC 35218; test: MIC, broth microdilution, iron-deficient MH medium; assay type: cell-based; settings: Escherichia coli, ATCC35218; iron-deficient MH medium (16 mg/L 2,2'-bipyridine); quality control strain; read-out: Antibacterial activity MIC, Escherichia coli ATCC 35218
Experimental: as §1, §2, §3, §4
(§8) BPL was added to the normal MH medium to obtain a final concentration of 16 mg/L; According to the method in Section 1.2.1, 100 μl of each test sample solution at different concentrations was aspirated to the 1st to 10th well in a 96-well sterile polystyrene plate to obtain the final drug concentrations of 16, 8, 4, 2, 1, 0.5, 0.25, 0.125, 0.06, and 0.03 mg/L, respectively. Then, 100 μl of the test bacterial liquid was added to each well (200 μl per well), and the final concentration of the bacterial liquid was approximately 10^4 CFU/ml. After sealing, it was placed in a 35-37° C. incubator for 18-20 hours for testing the result. The OD600 value was measured by a microplate reader, Minimal Inhibitory Concentration (MIC) of a drug is the lowest concentration of the drug which prevents growth of bacteria in the wells.

[7] = tested on: Acinetobacter baumannii (4 strains); test: MIC, broth microdilution, iron-deficient MH medium; assay type: cell-based; settings: Acinetobacter baumannii; iron-deficient MH medium (16 mg/L 2,2'-bipyridine); multidrug-resistant clinical isolates (integron I, OXA23); read-out: Antibacterial activity MIC, Acinetobacter baumannii (4 strains)
Experimental: as §7, §2, §3, §4, §8

[8] = tested on: Escherichia coli (4 strains); test: MIC, broth microdilution, iron-deficient MH medium; assay type: cell-based; settings: Escherichia coli; iron-deficient MH medium (16 mg/L 2,2'-bipyridine); clinical isolates (ESBLs); read-out: Antibacterial activity MIC, Escherichia coli (4 strains)
Experimental: as §7, §2, §3, §4, §8

[9] = tested on: Klebsiella pneumoniae (4 strains); test: MIC, broth microdilution, iron-deficient MH medium; assay type: cell-based; settings: for MIC: Klebsiella pneumoniae, iron-deficient MH medium (16 mg/L 2,2'-bipyridine), multi-drug resistant clinical isolates (KPC2), read-out: Antibacterial activity MIC, Klebsiella pneumoniae (4 strains); for times more effective than BAL30072 in inhibitory activity against Klebsiella pneumonia: iron-deficient MH medium, from MIC of Table 3
Experimental: as §7, §2, §3, §4, §8

[10] = tested on: Pseudomonas aeruginosa (4 strains); test: MIC, broth microdilution, iron-deficient MH medium; assay type: cell-based; settings: Pseudomonas aeruginosa; iron-deficient MH medium (16 mg/L 2,2'-bipyridine); multidrug-resistant clinical isolates (integrator I, IMP4); read-out: Antibacterial activity MIC, Pseudomonas aeruginosa (4 strains)
Experimental: as §7, §2, §3, §4, §8

[11] = tested on: multidrug-resistant Klebsiella pneumoniae KR15-4 (KPC2); test: In vivo efficacy in mice systemically infected with multidrug-resistant Klebsiella pneumoniae KR15-4 (KPC2); settings: Kunming mice, intraperitoneal infection, drug s.c. 0.5 h and 4 h after infection, deaths over 7 days, Bliss method; for ED50: Klebsiella pneumoniae, read-out: ED50 Subcutaneous injection
Experimental: 4.1 Test strains: clinically isolated pathogenic multidrug-resistant Klebsiella pneumoniae KR15-4 (KPC2), provided by Sichuan Primed Shines Bio-tech Co., Ltd.
4.2 Test animals: Kunming mice, age: 4 to 5 weeks, weight: 18 to 22 g, half male, half female, SPF grade.
4.3 Test methods: Mice were randomly divided into several groups, 5 mice for each group, half male and half female, and 4 doses for each test drug: 12.5, 25, 50 and 100 mg/kg. The mice were intraperitoneally injected with 0.5 mL of 3.0×10^6 CFU/mL bacterial suspension for each mouse, and subcutaneously injected with the drug at the designed dose 0.5 h and 4 h after infection. The subcutaneous injection volume was 0.2 ml/20 g mouse weight; the number of deaths in mice was observed and recorded for 7 consecutive days. According to the number of deaths in mice, the half effective dose ED50 was calculated according to the Bliss method using the DAS 1.0 software, edited by Sun Ruiyuan et al.

SMILES | MIC [1] [µg/mL] | MIC [2] [µg/mL] | MIC [3] [µg/mL] | times more effective than BAL30072 in inhibitory activity against Escherichia coli [3] | MIC [4] [µg/mL] | MIC [5] [µg/mL] | times more effective than BAL30072 in inhibitory activity against Klebsiella pneumoniae [5] | MIC [6] [µg/mL] | MIC [7] [µg/mL] | MIC [8] [µg/mL] | MIC [9] [µg/mL] | times more effective than BAL30072 in inhibitory activity against Klebsiella pneumonia [9] | MIC [10] [µg/mL] | ED50 [11] [mg/kg] | ED50 Subcutaneous injection [11] [mg/kg]
CSCC(O/N=C(\C(=O)N[C@@H]1C(=O)N(OS(=O)(=O)O)C1(C)C)c1csc(N)n1)c1cc(=O)c(O)cn1O (stereo partly drawn) [Compound 16, (3S)-3-((Z)-2-(2-aminothiazol-4-yl)-2-((1-(1,5-dihydroxy-4-oxo-1,4-dihydropyridin-2-yl)-2-(methylthio)ethoxy)imine)acetamido)-2,2-dimethyl-4-oxoazetidine-1-hydrogen sulfate] | < 0.03 | 1 to 2 | 0.125 to 0.5 | 2-8 times | 0.25 to 2 | 0.5 to 1 | 64-128 times | < 0.03 | 0.5 to 1 | 0.06 to 0.25 | 0.5 to 1 | 64-128 times | 0.125 to 1 |  | 
CC(O/N=C(\C(=O)N[C@@H]1C(=O)N(OS(=O)(=O)O)C1(C)C)c1nc(N)sc1Cl)c1cc(=O)c(O)cn1O (stereo partly drawn) [Compound 22, (3S)-3-((Z)-2-(2-amino-5-chlorothiazol-4-yl)-2-((1-(1,5-dihydroxy-4-oxo-1,4-dihydropyridin-2-yl)ethoxyl)imine)acetamido)-2,2-dimethyl-4-oxoazetidine-1-hydrogen sulfate] | < 0.03 | 2 | 0.06 to 0.5 | 4-16 times | 0.5 to 2 | 1 | 64 times | < 0.03 | 1 | 0.06 to 0.25 | 1 | 64 times | 0.5 to 1 |  | 
CC(C)C(O/N=C(\C(=O)N[C@@H]1C(=O)N(OS(=O)(=O)O)C1(C)C)c1nc(N)sc1Cl)c1cc(=O)c(O)cn1O (stereo partly drawn) [Compound 24, (3S)-3-((Z)-2-(2-amino-5-chlorothiazol-4-yl)-2-((1-(1,5-dihydroxy-4-oxo-1,4-dihydropyridin-2-yl)-2-methylpropoxy)imine)acetamido)-2,2-dimethyl-4-oxoazetidine-1-hydrogen sulfate] |  |  |  |  |  |  |  | < 0.03 | 1 to 2 | 0.06 to 0.25 | 0.125 to 0.5 | 128-512 times | 0.25 to 2 |  | 
C[C@H](O/N=C(\C(=O)N[C@@H]1C(=O)N(OS(=O)(=O)O)C1(C)C)c1nc(N)sc1Cl)c1cc(=O)c(O)cn1O [Compound 26, (S)-3-((Z)-2-(2-amino-5-chlorothiazol-4-yl)-2-(((S)-1-(1,5-dihydroxy-4-oxo-1,4-dihydropyridin-2-yl)ethoxy)imine)acetamido)-2,2-dimethyl-4-oxoazetidine-1-hydrogen sulfate] | < 0.03 | 1 | 0.25 to 1 |  | 0.5 to 1 | 1 to 4 |  | < 0.03 | 0.5 to 1 | 0.03 to 0.25 | 0.5 to 4 | 16-128 times | 0.25 to 1 |  | 
CC(C)[C@H](O/N=C(\C(=O)N[C@@H]1C(=O)N(OS(=O)(=O)O)C1(C)C)c1csc(N)n1)c1cc(=O)c(O)cn1O [Compound 28, (3S)-3-((Z)-2-(2-aminothiazol-4-yl)-2-(((S)-1-(1,5-dihydroxy-4-oxo-1,4-Dihydropyridin-2-yl)-2-methylisopropyloxy)imine)acetamido)-2,2-dimethyl-4-oxoazetidine-1-hydrogen sulfate] |  |  |  |  |  |  |  | < 0.03 | 1 to 2 | 0.125 to 0.25 | 1 | 64 times | 0.125 to 1 |  | 
CC(C)[C@H](O/N=C(\C(=O)N[C@@H]1C(=O)N(OS(=O)(=O)O)C1(C)C)c1nc(N)sc1Cl)c1cc(=O)c(O)cn1O [Compound 29, (3S)-3-((Z)-2-(2-amino-5-chlorothiazol-4-yl)-2-(((S)-1-(1,5-dihydroxy-4-oxo-1,4-dihydropyridin-2-yl)-2-methylpropoxy)imine)acetamido)-2,2-dimethyl-4-oxoazetidine-1-hydrogen sulfate] | < 0.03 | 1 to 2 | 1 to 2 |  | 0.25 to 2 | 1 to 4 |  | < 0.03 | 0.5 to 1 | 0.125 to 1 | 0.25 to 0.5 | 128-256 times | 0.06 to 1 |  | 
C[C@H]1[C@H](NC(=O)/C(=N\OC(C)(C)C(=O)O)c2csc(N)n2)C(=O)N1S(=O)(=O)O [aztreonam, reference compound] | 0.5 (≈ 1.15 µM) |  |  |  |  |  |  |  |  |  |  |  |  | > 100 | >100
CO/N=C(\C(=O)N[C@@H]1C(=O)N2C(C(=O)O)=CCS[C@H]12)c1csc(N)n1 [ceftizoxime sodium, reference compound] | 0.25 | 32 to 64 | 0.5 to 2 |  | > 64 | 32 to 64 |  |  |  |  |  |  |  |  | 
C[C@@H](O)[C@H]1C(=O)N2C(C(=O)O)=C(S[C@@H]3CN[C@H](C(=O)N(C)C)C3)[C@H](C)[C@H]12 [meropenem, reference compound] | 0.125 (≈ 0.326 µM) | 64 (≈ 167 µM) | 0.25 to 32 (≈ 0.652 to 83.4 µM) |  | 32 to 64 (≈ 83.4 to 167 µM) | 32 to 64 (≈ 83.4 to 167 µM) |  |  |  |  |  |  |  | > 100 | >100
